These are literature values, as cited in patent publication US8133904B2, “Cannabinoid receptor antagonists/inverse agonists useful for treating obesity” (Jenrin Discovery, Inc., priority 2007, dated 2012).

The conditions of the data set: patients with type 2 diabetes not treated with other anti-diabetic medications; after six months of treatment; baseline value 7.9.

As for `Cc1c(C(=O)NN2CCCCC2)nn(-c2ccc(Cl)cc2Cl)c1-c1ccc(Cl)cc1` [rimonabant], the HbA1c levels lowered is given as 0.8%.
